Laboratory results published in ChEMBL document CHEMBL1148033, “Four new C16 1,2-dioxene-polyketides from the sponge Plakortis aff. simplex” (J Nat Prod, 1993).

Tested on: P388
Test: Cytotoxicity against mouse P388 cells
Format: functional, cell-based

Row | Structure (SMILES) | IC50 [µg/mL]
1 | CCCC1C=CC(CCC[C@]2(OC)C=C[C@@H](CC(=O)OC)OO2)OO1 (some centres not stated) | < 0.1
2 | CCC/C=C/C=C/CCC[C@]1(OC)C=C[C@@H](CC(=O)OC)OO1 | < 0.1
